Reference: US20250144067A1, “PERSONALIZED STARVATION THERAPY FOR CANCER” (Faeth Therapeutics, Inc., priority 2021, published 2025)
Structures can show the parent of a compound that is named as a salt. Where two headings read alike, the source gives them in different places.

Experiments:
[1] = tested on: NCI-H292 lung cancer cells; experiment: FDA drug screening, complete media vs cholesterol-free media without statin (TABLE 1); format: cell-based, human
[2] = tested on: NCI-H292 lung cancer cells; experiment: FDA drug screening, complete media vs cholesterol-free media with simvastatin (TABLE 2); format: cell-based, human
[3] = Complete minus Cholesterol-free, greater than 0 enhanced anti-cancer activity, about 0 neutral, below 0 antagonist
[4] = NCI-H292 cells, FDA drug library screen, cholesterol-free media without statin
[5] = NCI-H292 cells, FDA drug library screen, complete media
[6] = NCI-H292 cells, drug in cholesterol-free media with simvastatin 0.04 μM
[7] = NCI-H292 cells, drug in complete media
[8] = complete media vs cholesterol-free media + simvastatin (0.04 μM), >0 enhanced anti-cancer activity, about 0 neutral, <0 antagonist
[9] = Complete minus Cholesterol-free, […]
[10] = NCI-H292 cells, cholesterol-free media without statin, FDA drug library screen
[11] = NCI-H292 cells, complete media, FDA drug library screen
[12] = NCI-H292 cells, FDA drug library screen, cholesterol-free media with simvastatin 0.04 μM
[13] = complete media minus cholesterol-free media + simvastatin, […]
[14] = Complete minus Cholesterol-free, >0 enhanced anti-cancer activity, about 0 neutral, <0 antagonist
[15] = complete media minus cholesterol-free media + simvastatin, >0 enhanced anti-cancer activity, about 0 neutral, <0 antagonist
[16] = complete vs cholesterol-free media, >0 enhanced anti-cancer activity, about 0 neutral, <0 antagonist
[17] = NCI-H292 cells, FDA library drug in cholesterol-free media with simvastatin 0.04 μM
[18] = NCI-H292 cells, FDA library drug in complete media
[19] = NCI-H292 cells, cholesterol-free media with simvastatin 0.04 μM, FDA drug library screen (TABLE 2)
[20] = NCI-H292 cells, complete media, FDA drug library screen (TABLE 2)
[21] = complete media minus cholesterol-free media + simvastatin (0.04 μM), […]
[22] = Complete minus Cholesterol-free, greater than 0 enhanced anti-cancer activity, about 0 neutral, below 0 antagonists
[23] = NCI-H292 cells in cholesterol-free media without statin
[24] = NCI-H292 cells in complete media
[25] = NCI-H292 cells, cholesterol-free media without statin
[26] = complete media minus cholesterol-free media + simvastatin (0.04 μM), >0 enhanced anti-cancer activity, about 0 neutral, <0 antagonist
[27] = complete vs cholesterol-free media, greater than 0 enhanced anti-cancer activity, about 0 neutral, below 0 antagonists

Nc1ncnc2c1ncn2[C@@H]1O[C@H](COP(=O)(O)OP(=O)(O)OP(=O)(O)O)[C@@H](O)[C@H]1O [ATP]
Difference [1, 3]: −0.10 | Cholesterol-free [1, 4]: 1.57 | Complete [1, 5]: 1.466 | Cholesterol-free media + simvastatin (0.04 μM) [2, 6]: 1.049 | Complete Media [2, 7]: 0.8041 | Difference [2, 8]: −0.24

CN(C)C(=O)c1ccc(S(=O)(=O)c2ccc(NC(=O)[C@@](C)(O)C(F)(F)F)c(Cl)c2)cc1 [AZD7545]
Difference [1, 9]: −0.01 | Cholesterol-free [1, 10]: 0.721 | Complete [1, 11]: 0.7125 | Cholesterol-free media + simvastatin (0.04 μM) [2, 12]: 0.8136 | Complete Media [2, 5]: 1.088 | Difference [2, 13]: 0.27

Nc1nc(NC2CC2)c2ncn([C@H]3C=C[C@@H](CO)C3)c2n1.Nc1nc(NC2CC2)c2ncn([C@H]3C=C[C@@H](CO)C3)c2n1.O=S(=O)(O)O [Abacavir (sulfate)]
Difference [1, 14]: 0.06 | Cholesterol-free [1, 10]: 0.4233 | Complete [1, 11]: 0.4872 | Cholesterol-free media + simvastatin (0.04 μM) [2, 12]: 0.2456 | Complete Media [2, 5]: 0.4029 | Difference [2, 15]: 0.16

Nc1nc(NC2CC2)c2ncn([C@H]3C=C[C@@H](CO)C3)c2n1 [Abacavir]
Cholesterol-free [1, 10]: 0.6425 | Complete [1, 11]: 1.2 | Difference [1, 16]: 0.56 | Cholesterol-free media + simvastatin (0.04 μM) [2, 12]: 1.851 | Complete Media [2, 5]: 2.026 | Difference [2, 15]: 0.18

CCN1CCN(Cc2ccc(Nc3ncc(F)c(-c4cc(F)c5nc(C)n(C(C)C)c5c4)n3)nc2)CC1 [Abemaciclib]
Cholesterol-free [1, 10]: 0.7212 | Complete [1, 11]: 0.8498 | Difference [1, 16]: 0.13 | Cholesterol-free media + simvastatin (0.04 μM) [2, 17]: 1.011 | Complete Media [2, 18]: 0.6686 | Difference [2, 8]: −0.34

CC(=O)O[C@H]1CC[C@@]2(C)C(=CC[C@@H]3[C@@H]2CC[C@]2(C)C(c4cccnc4)=CC[C@@H]32)C1 [Abiraterone acetate]
Cholesterol-free [1, 10]: 0.5232 | Complete [1, 11]: 1.307 | Difference [1, 16]: 0.78 | Cholesterol-free media + simvastatin (0.04 μM) [2, 17]: 1.209 | Complete Media [2, 18]: 0.9 | Difference [2, 8]: −0.31

C[C@]12CC[C@H](O)CC1=CC[C@@H]1[C@@H]2CC[C@]2(C)C(c3cccnc3)=CC[C@@H]12 [Abiraterone]
Cholesterol-free [1, 10]: 1.119 | Complete [1, 11]: 1.371 | Difference [1, 16]: 0.25 | Cholesterol-free media + simvastatin (0.04 μM) [2, 17]: 1.907 | Complete Media [2, 18]: 1.473 | Difference [2, 8]: −0.43

CC#CC(=O)N1CCC[C@H]1c1nc(-c2ccc(C(=O)Nc3ccccn3)cc2)c2c(N)nccn12 [Acalabrutinib]
Cholesterol-free [1, 10]: 0.7449 | Complete [1, 11]: 0.989 | Difference [1, 16]: 0.24 | Cholesterol-free media + simvastatin (0.04 μM) [2, 12]: 1.302 | Complete Media [2, 5]: 1.618 | Difference [2, 15]: 0.32

CC(=O)NCCCS(=O)(=O)O [Acamprosate (calcium)]
Difference [1, 9]: 0.03 | Cholesterol-free [1, 10]: 1.751 | Complete [1, 11]: 1.779 | Cholesterol-free media + simvastatin (0.04 μM) [2, 19]: 1.34 | Complete Media [2, 20]: 1.328 | Difference [2, 21]: −0.01

C[C@H]1O[C@H](O[C@H]2[C@H](O)[C@@H](O)[C@@H](O[C@H]3[C@H](O)[C@@H](O)C(O)O[C@@H]3CO)O[C@@H]2CO)[C@H](O)[C@@H](O)[C@@H]1N[C@H]1C=C(CO)[C@@H](O)[C@H](O)[C@H]1O (stereo partly drawn) [Acarbose]
Difference [1, 3]: −0.13 | Cholesterol-free [1, 4]: 1.056 | Complete [1, 5]: 0.9216 | Cholesterol-free media + simvastatin (0.04 μM) [2, 12]: 0.841 | Difference [2, 15]: 0.31

CCCC(=O)Nc1ccc(OCC(O)CNC(C)C)c(C(C)=O)c1 (stereo not drawn) [Acebutolol (hydrochloride)]
Difference [1, 22]: −0.56 | Cholesterol-free [1, 23]: 1.541 | Complete [1, 24]: 0.9763 | Cholesterol-free media + simvastatin (0.04 μM) [2, 12]: 1.195 | Complete Media [2, 5]: 1.105 | Difference [2, 8]: −0.09

O=C(O)COC(=O)Cc1ccccc1Nc1c(Cl)cccc1Cl [Aceclofenac]
Cholesterol-free [1, 10]: 0.9513 | Complete [1, 11]: 1.14 | Difference [1, 16]: 0.19 | Cholesterol-free media + simvastatin (0.04 μM) [2, 12]: 1.455 | Complete Media [2, 5]: 1.329 | Difference [2, 8]: −0.13

Cn1c(=O)c2c(ncn2CC(=O)O)n(C)c1=O [Acefylline]
Difference [1, 14]: −0.31 | Cholesterol-free [1, 25]: 1.455 | Cholesterol-free media + simvastatin (0.04 μM) [2, 19]: 1.078 | Complete Media [2, 20]: 1.058 | Difference [2, 26]: −0.02

CC(=O)NC(CCC(N)=O)C(=O)O (stereo not drawn) [Aceglutamide]
Cholesterol-free [1, 25]: 1.178 | Complete ([1]; NCI-H292 cells, complete media): 0.7674 | Difference [1, 27]: −0.41 | Cholesterol-free media + simvastatin (0.04 μM) [2, 12]: 0.762 | Complete Media [2, 5]: 1.026 | Difference [2, 15]: 0.26

COc1ccc2c(c1)c(CC(=O)OCC(=O)O)c(C)n2C(=O)c1ccc(Cl)cc1 [Acemetacin]
Cholesterol-free [1, 10]: 1.099 | Complete [1, 11]: 1.479 | Difference [1, 16]: 0.38 | Cholesterol-free media + simvastatin (0.04 μM) [2, 17]: 2.236 | Complete Media [2, 18]: 1.509 | Difference [2, 8]: −0.73

CC(=O)CC(c1ccc([N+](=O)[O-])cc1)c1c(O)c2ccccc2oc1=O (stereo not drawn) [Acenocoumarol]
Difference [1, 14]: −0.28 | Cholesterol-free [1, 25]: 1.889 | Complete ([1]; NCI-H292 cells, complete media): 1.605 | Cholesterol-free media + simvastatin (0.04 μM) [2, 12]: 2.014 | Difference [2, 26]: −0.90

CC(=O)Nc1nnc(S(N)(=O)=O)s1 [Acetazolamide]
Cholesterol-free [1, 10]: 0.821 | Complete [1, 11]: 0.9414 | Difference [1, 16]: 0.12 | Cholesterol-free media + simvastatin (0.04 μM) [2, 19]: 0.9594 | Complete Media [2, 20]: 0.9398 | Difference [2, 26]: −0.02

CC(=O)c1ccc(S(=O)(=O)NC(=O)NC2CCCCC2)cc1 [Acetohexamide]
Difference [1, 3]: −0.13 | Cholesterol-free [1, 4]: 1.163 | Complete [1, 5]: 1.03 | Cholesterol-free media + simvastatin (0.04 μM) [2, 12]: 1.214 | Complete Media [2, 5]: 1.116 | Difference [2, 8]: −0.10

CC(=O)NO [Acetohydroxamic acid]
Difference [1, 14]: −0.28 | Cholesterol-free [1, 25]: 1.174 | Complete ([1]; NCI-H292 cells, complete media): 0.8978 | Cholesterol-free media + simvastatin (0.04 μM) ([2]; NCI-H292 cells, cholesterol-free media with simvastatin 0.04 μM, cell growth value in FDA drug screen): 0.8799 | Complete Media ([2]; NCI-H292 cells, complete media, cell growth value in FDA drug screen): 0.8992 | Difference [2, 15]: 0.02

CC(=O)OCC[N+](C)(C)C.[Cl-] [Acetylcholine (chloride)]
Cholesterol-free [1, 10]: 1.32 | Complete [1, 11]: 1.724 | Difference [1, 16]: 0.40 | Cholesterol-free media + simvastatin (0.04 μM) [2, 6]: 0.9864 | Complete Media [2, 7]: 0.8029 | Difference [2, 8]: −0.18

CC(=O)OCC[N+](C)(C)C.[I-] [Acetylcholine (iodide)]
Cholesterol-free [1, 25]: 1.351 | Complete ([1]; NCI-H292 cells, complete media): 1 | Difference [1, 27]: −0.35 | Cholesterol-free media + simvastatin (0.04 μM) [2, 6]: 1.762 | Complete Media [2, 7]: 1.59 | Difference [2, 8]: −0.17

CC(=O)N[C@@H](CS)C(=O)O [Acetylcysteine]
Difference [1, 22]: −0.64 | Cholesterol-free [1, 23]: 1.369 | Complete [1, 24]: 0.7324 | Cholesterol-free media + simvastatin (0.04 μM) [2, 6]: 1.145 | Complete Media [2, 7]: 0.9059 | Difference [2, 8]: −0.24

CC(=O)N[C@@H](CC(C)C)C(=O)O [Acetylleucine]
Difference [1, 3]: −0.09 | Cholesterol-free [1, 4]: 0.9104 | Complete [1, 5]: 0.8206 | Cholesterol-free media + simvastatin (0.04 μM) [2, 19]: 0.8948 | Complete Media [2, 20]: 0.8714 | Difference [2, 26]: −0.02

Cc1cnc(C(=O)O)c[n+]1[O-] [Acipimox]
Cholesterol-free [1, 25]: 1.354 | Complete ([1]; NCI-H292 cells, complete media): 1.008 | Difference [1, 27]: −0.35 | Cholesterol-free media + simvastatin (0.04 μM) [2, 12]: 1.352 | Complete Media [2, 5]: 1.26 | Difference [2, 8]: −0.09

COc1cc(C)c(/C=C/C(C)=C/C=C/C(C)=C/C(=O)O)c(C)c1C [Acitretin]
Difference [1, 9]: −0.08 | Cholesterol-free [1, 4]: 0.8064 | Complete [1, 5]: 0.7285 | Cholesterol-free media + simvastatin (0.04 μM) ([2]; NCI-H292 cells, cholesterol-free media with simvastatin 0.04 μM, […]): 0.7241 | Complete Media ([2]; NCI-H292 cells, complete media, […]): 0.76 | Difference [2, 13]: 0.04

CC[C@@]1(O)C[C@H](O[C@H]2C[C@H](N(C)C)[C@H](O[C@H]3C[C@H](O)[C@H](O[C@H]4CCC(=O)[C@H](C)O4)[C@H](C)O3)[C@H](C)O2)c2c(cc3c(c2O)C(=O)c2c(O)cccc2C3=O)[C@H]1C(=O)OC.Cl [Aclacinomycin A hydrochloride]
Difference [1, 9]: −0.01 | Cholesterol-free [1, 10]: 0.01335 | Complete [1, 11]: 0.007534 | Cholesterol-free media + simvastatin (0.04 μM) [2, 19]: 0.01688 | Complete Media [2, 20]: 0.01023 | Difference [2, 21]: −0.01

O=C(O[C@H]1C[N+]2(CCCOc3ccccc3)CCC1CC2)C(O)(c1cccs1)c1cccs1.[Br-] [Aclidinium (Bromide)]
Cholesterol-free [1]: 1.253 | Complete [1]: 0.9873 | Difference [1]: −0.27 | Cholesterol-free media + simvastatin (0.04 μM) [2]: 0.8781 | Complete Media [2]: 0.7357 | Difference [2]: −0.14

Nc1nc2c(ncn2COCCO)c(=O)[nH]1 [Acyclovir]
Cholesterol-free [1, 10]: 0.843 | Complete [1, 11]: 1.434 | Difference [1, 16]: 0.59 | Cholesterol-free media + simvastatin (0.04 μM) [2, 12]: 1.866 | Complete Media [2, 5]: 1.782 | Difference [2, 8]: −0.08
